The target of this experiment is T1, Cathepsin K (Homo sapiens, UniProt P43235).
T1 sequence (P43235 whole entry): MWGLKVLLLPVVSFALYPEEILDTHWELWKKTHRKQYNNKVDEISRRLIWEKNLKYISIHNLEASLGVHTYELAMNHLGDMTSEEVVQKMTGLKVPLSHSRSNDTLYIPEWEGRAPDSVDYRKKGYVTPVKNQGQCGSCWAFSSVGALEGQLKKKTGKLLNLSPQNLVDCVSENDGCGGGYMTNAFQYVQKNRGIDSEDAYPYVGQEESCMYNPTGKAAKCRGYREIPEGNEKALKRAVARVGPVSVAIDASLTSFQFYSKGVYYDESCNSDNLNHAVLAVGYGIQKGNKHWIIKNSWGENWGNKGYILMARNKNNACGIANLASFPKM
The experiment can be described thus: Compound was tested for its inhibitory activity against human osteoclast cathepsin K.
Compound `CC(C)C[C@H](NC(=O)OCc1ccccc1)c1nc(C(=O)NN2CC[C@@](CC(C)C)(NC(=O)OCc3ccccc3)C2=O)cs1` had an inhibition constant Ki of 33 nM. This counts as double-digit nanomolar. With `CC(C)C[C@H](NC(=O)OCc1ccccc1)c1nc(C(=O)NN2CC[C@@H](NC(=O)OCc3ccccc3)C2=O)cs1` the figure was 330 nM; with `CC(C)C[C@H](NC(=O)OCc1ccccc1)C(=O)NNC(=O)c1csc([C@H](CC(C)C)NC(=O)OCc2ccccc2)n1`, 10 nM.

As usually defined, the Ki is the equilibrium dissociation constant of an inhibitor or competing ligand from its target.

The record behind these values is ChEMBL document CHEMBL1131781, “Design and synthesis of diaminopyrrolidinone inhibitors of human osteoclast cathepsin K” (Bioorg Med Chem Lett, 1999).
